Measurements taken from patent US11209440B2, “T cell balance gene expression, compositions of matters and methods of use thereof” (THE BROAD INSTITUTE, INC., priority 2014, dated 2021).
Entries after “also recorded” stand apart in the source; their conditions may differ.

T1: Rorγt (Mus musculus, UniProt P51450)
T1 sequence (P51450 1-495 isoform P51450-2): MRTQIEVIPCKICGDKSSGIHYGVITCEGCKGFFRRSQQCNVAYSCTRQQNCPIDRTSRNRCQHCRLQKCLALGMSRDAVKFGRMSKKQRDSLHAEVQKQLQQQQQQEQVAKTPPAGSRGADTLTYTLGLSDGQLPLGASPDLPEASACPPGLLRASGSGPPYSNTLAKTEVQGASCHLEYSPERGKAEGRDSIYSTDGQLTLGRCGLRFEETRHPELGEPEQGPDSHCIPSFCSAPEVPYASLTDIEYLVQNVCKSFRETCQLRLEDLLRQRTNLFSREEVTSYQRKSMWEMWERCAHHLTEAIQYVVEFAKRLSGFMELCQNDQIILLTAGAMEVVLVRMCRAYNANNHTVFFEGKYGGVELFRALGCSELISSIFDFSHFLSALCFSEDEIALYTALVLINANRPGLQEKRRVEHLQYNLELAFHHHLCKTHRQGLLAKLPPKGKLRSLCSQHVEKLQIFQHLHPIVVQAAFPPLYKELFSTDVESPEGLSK

B1: IL-23: proinflammatory cytokine; recombinant mouse IL-23 (protein, UniProt Q9EQ14 22-196; P43432 23-335, looked up)
Interleukin-23 subunit alpha: VPRSSSPDWAQCQQLSRNLCMLAWNAHAPAGHMNLLREEEDEETKNNVPRIQCEDGCDPQGLKDNSQFCLQRIRQGLAFYKHLLDSDIFKGEPALLPDSPMEQLHTSLLGLSQLLQPEDHPRETQQMPSLSSSQQWQRPLLRSKILRSLQAFLAIAARVFAHGAATLTEPLVPTA
Interleukin-12 subunit beta: MWELEKDVYVVEVDWTPDAPGETVNLTCDTPEEDDITWTSDQRHGVIGSGKTLTITVKEFLDAGQYTCHKGGETLSHSHLLLHKKENGIWSTEILKNFKNKTFLKCEAPNYSGRFTCSWLVQRNMDLKFNIKSSSSSPDSRAVTCGMASLSAEKVTLDQRDYEKYSVSCQEDVTCPTAEETLPIELALEARQQNKYENYSTSFFIRDIIKPDPPKNLQMKPLKNSQVEVSWEYPDSWSTPHSYFSLKFFVRIQRKKEKMKETEEGCNQKGAFLVEKTSTEVQCKGGNVCVQAQDRYYNSSCSKWACVPCRVRS

Columns and labels:
[1] = target: T1, Rorγt; assay: Rorγt ChIP-PCR in Th17 cells with added SFA or PUFA; assay type: cell-based; set-up: endogenous in cells; host or cells: wild-type mouse Th17 cells differentiated in vitro from naïve CD4+ T cells; settings: WT Th17 cells
Procedure: (§1) Lipidome analysis of Th17 cells. (A) WT and CD5L^−/− naïve T cells were differentiated as in FIG. 46B in the presence of cytokines as indicated. Cells and supernatant were harvested at 96 hours and subjected to MS/LC. Three independent mouse experiments were performed. […] (B) Expression of representative metabolites including a cholesterol ester and a PUFA-containing TAG species. FIG. 48 C, D, E, F-J show as follows: (C) Metabolomic analysis of independent mouse experiments where T cells were differentiated under various cytokine conditions as indicated and harvested at 48 h and 96 h. (D,E) Rorγt ChIP from Th17 cells differentiated as described in A. under various conditions as indicated. F-K. Dual luciferase reporter assay was performed in EL4 cells stably transfected with a control vector or Rorγt vector. (F, G) CD5L retroviral vector was cotransfected in F and G at 0, 25, 50 and 100 ng/well. […] All ChIP and luciferase assay are representative of at least 3 independent experiments.

[2] = tested on: Th17 cells; assay: qPCR and Nanostring signature analysis of Th17 cells treated with free fatty acids; assay type: cell-based, mouse
Procedure: (§2) (A) Naïve T cells were sorted from either WT or IL-23RGFP reporter mice, activated with plate-bound anti-CD3/anti-CD28 and differentiated with TGFβ1+IL-6 for 48 hours. […] (B) Cells from WT and Rorc^−/− mice were sorted, differentiated and treated with FFA as in A. Cells were harvested for RNA purification and qPCR. (C) Naïve WT and CD5L^−/− T cells were differentiated as in A. Cells were then lifted, washed and replated in fresh media with no addition of cytokines and in the presence of control or 5 uM of arachidonic acid (PUFA). Cytokine profile of T cells were measured after PMA/ionomycin restimulation. […] Another 48 hours later, cells were harvested for nanostring analysis (D) or qPCR (E).
Next, the contribution of lipid saturation to Th17 cell pathogenicity was studied.

[3] = tested on: Th17 cells; assay: FACS of IL-17 and IL-23R.GFP in Th17 cells treated with free fatty acids; assay type: cell-based, mouse
Procedure: as §2

[4] = target: T1, Rorγt; assay: Dual luciferase reporter assay in EL4 cells stably transfected with Rorγt vector; assay type: cell-based; set-up: expressed in transfected cells; host or cells: EL4 cells, stably transfected; settings: for Rorγt driven Il17a transcription: 10 μM arachidonic acid
Procedure: as §1

[5] = tested on: Cd5l expression; assay: Cd5l expression by qPCR in TGFβ1+IL-6 Th17 cells expanded with or without IL-23; assay type: cell-based, mouse; settings: naïve T cells differentiated with TGFβ1+IL-6 for 48 h, then IL-23 vs PBS in fresh media
From the text: FIG. 45A-45H show Single-cell RNA-seq identifies Cd5l as a novel regulator associated with Th17 cell pathogenicity and expressed only by non-pathogenic Th17 cells. Single-cells were sorted from in-vitro Th17 cells differentiated with TGFβ1+IL-6 (A,B), IL-1β+IL-6+IL-23 (C), TGFβ3+IL-6 (D) and in-vivo Th17 cells from CNS of mice at the peak of EAE (score=3) (D). IL-17A.GFP^+ CD4^+ T cells were sorted in all panels in D. (A) Correlation of CD5L expression in non-pathogenic Th17 cells with the pathogenic signature (Lee, Awasthi et al.). (B) Principal Component Analysis of CD5L expression where the direction of PC1 correlates with pathogenicity. (C, D) Histogram of CD5L expression in single-cell from conditions as indicated. CD5L expression in vitro is validated by qPCR (E, F) and flow cytometry (G). […] CD5L expression was measured by qPCR at 48 h (E) and 72 h (F) and intracellularly by flow cytometry at 48 h (G); (F) At 48 h, cells were lifted from plate, washed and replated in fresh media with IL-23 or PBS and cultured for additional 24 h. […] Cd5l and Il17a expression are measured by qPCR. […] I. IL-17^+ (GFP^+) and IL-17^− (GFP^−) CD4^+ cells were sorted from the gut of naïve mice and the number of RNA transcripts measured by nanostring and normalized based on four house-keeping genes. […]

| Molecule | Rorγt binding to the Il10 CNS-9 region [1] | 316 gene signature of Th17 cell differentiation and function ([2]; CD5L−/− Th17 cells (TGFβ1+IL-6), 5 uM arachidonic acid, Nanostring nCounter) | Il22 expression ([2]; qPCR) | expression of key pathogenicity signature genes Il10, Il23r, Ccl5, Csf2 and Lag3 ([2]; qPCR) | effect on Il17 and Il23r expression in Rorγt−/− Th17 cells ([2]; qPCR, Rorγt−/− cells) | percentage of IL-17+ CD4+ T cells ([3]; CD5L−/− Th17 cells, non-pathogenic condition, 5 uM arachidonic acid) | percentage of IL-23R.GFP+ CD4 T cells ([3]; IL-23RGFP reporter Th17 (TGFβ1+IL-6) expanded with IL-23, 10 uM arachidonic acid or 20 uM palmitic acid, 48 h, FACS) | percentage of IL-17+ CD4 T cells ([3]; WT Th17 (TGFβ1+IL-6) expanded with IL-23, 10 uM arachidonic acid or 20 uM palmitic acid, 48 h, FACS) | Il10 transactivation ([4]; added to the agonist ligand) | Rorγt-mediated Il23r transactivation ([4]; added to the agonist ligand) | Rorγt driven Il17a transcription ([4]; cells expressing CD5L) | Rorγt driven Il17a transcription ([4]; control cells) | Cd5l expression [5] |
| --- | --- | --- | --- | --- | --- | --- | --- | --- | --- | --- | --- | --- | --- |
| CCCCC/C=C\C/C=C\C/C=C\C/C=C\CCCC(=O)O [PUFA, arachidonic acid] | significantly increased; also recorded: enhanced | resemble WT non-pathogenic Th17 cells | increased | reciprocally regulated | abolished | reduced percentage | suppressed | suppressed | enhanced | almost completely inhibited | but not in those expressing CD5L | decreased |  |
| B1 |  |  |  |  |  |  |  |  |  |  |  |  | significantly suppressed |
